From US9012604B2, “Triazanonane derivatives or pharmaceutically acceptable salt thereof for enhanced fluorine-18 labeling” (Snur & DB Foundation, priority 2011, dated 2015)

Test system: human serum protein
Test: Human serum protein binding measurement
Type: in vitro ADME
Conditions: compared with NO2A compound
Protocol: The labeling compounds were cultured in human serum (1 mL) at 37° C. for 10 min and 60 min, and loaded to PD-10 column (pre-conditioned with 1 mL of 1% BSA/0.1 M DTPA), swept under stream of PBS into 30 test tubes by 0.5 mL fractions each. The radioactivity of each test tube was measured with gamma counter, and […] of sample was collected from the respective test tubes. After impression on the paper filter and staining with Coomassie blue, the protein peaks were observed. By plotting a curve of radioactivity of the respective fractions and calculating protein binding percent, the result was obtained as shown in Table 3.

binding to human serum protein relative to NO2A compound: three times higher
Structure (SMILES): O=C(O)CCCN1CCN(CC(=O)O)CCN(CC(=O)O)CC1 [Example 1, 4,7-bis(carboxymethyl)-1,4,7-triazonane-1-butyric acid]
